According to patent publication US11504385B2, “Proteolysis targeting chimeric molecule, preparation method, and application” (CHINA PHARMACEUTICAL UNIVERSITY, priority 2019, dated 2022):

Experiments:
BCR-ABL fusion protein = target: T1, BCR-ABL fusion protein (Homo sapiens, UniProt P00519+P11274+Q96SW2, E27K); experiment: Immunoblotting, degradation of BCR-ABL protein in K562 cells; format: cell-based; details: for inhibition of expression of BCR-ABL and/or CRBN protein: BCR-ABL and/or CRBN positive leukemia K562 cells, to varying degrees
T1 construct: By using BCR-ABL and CRBN positive K562 cell lines; endogenous in cells; host or cells: K562
Procedure: (§1) Initially, researchers synthesized a 2C compound (FIG. 2A), which is a small molecule with the shortest joining chain (n=1). By using BCR-ABL and CRBN positive K562 cell lines, degradation of ABL and BCR-ABL proteins in the cells under the action of the compound was tested by immunoblotting. […] Then, the researchers tried to extend the joining chain (increasing the value of n).
(§2) In order to test the degradation effect of the compound 4C on c-ABL and BCR-ABL proteins in K562 cells, the researchers performed an immunoblotting experiment. […] In order to exclude the possibility that the compound 4C affected the ABL gene to generate false positive expression, the researchers used RT-qPCR in K562 cells to study the expression of the ABL gene.
The operation method of the immunoblotting experiment is as follows: […]
(§3) The medium was aspirated from the culture; the cells were washed with 1*PBS; and the cells were aspirated.
(§4) A weak RIPA lysate (100 μL) was added to lyse the cells for 40 min.
(§5) The sample was centrifuged at 13000 rpm, 4° C. for 15 min; 80 μl of supernatant was taken and added to 20 μl of loading buffer; the reaction solution was heated at 100° C. for 8 minutes; and the sample was placed on ice and cooled.
(§6) […] of sample was loaded on 10% SDS-PAGE gel. The sample was transferred to a PVDF membrane by a wet process.
(§7) A membrane was placed in 25 ml of blocking buffer and blocked at room temperature for 1 hour.
(§8) The membrane and the primary antibody (according to the appropriate dilution and diluent recommended in the product description) were placed in 10 ml of primary antibody dilution buffer, and incubated overnight at 4° C. and gently shaken from time to time.
(§9) Anti-rabbit IgG, HRP-linked Antibody (#7074, in a ratio of 1:2000) and anti-biotin, HRP-linked Antibody (#7075, in a ratio of 1:1000-1:3000) are diluted with 10 ml of blocking buffer to detect biotinylated protein standards. The membrane was incubated with the diluent, and gently shaken and incubated at room temperature for 1 hour.
(§10) A developer solution and the membrane were incubated together for 1 minute, the excess solution was discarded (the membrane remained moist) and the membrane was exposed.
(§11) Next, we tested the difference in the activity of different configurations of compound 4C in degradation of ABL and BCR-ABL proteins. […] The operation method of the immunoblotting experiment is the same as above.

ABL = target: T2, ABL (Homo sapiens, UniProt P00519); experiment: Immunoblotting, degradation of ABL protein in K562 cells; format: cell-based; details: 100 nM, 36 hours after administration
T2 construct: degradation effect of the compound 4C on c-ABL and BCR-ABL proteins in K562 cells; endogenous in cells; host or cells: K562
Procedure: as §1, §2
The operation method of the immunoblotting experiment is as follows:
K562 cells after administration were incubated for 24 hours.
as §3, §4, §5, §6, §7, §8, §9, §10, §11

T2 sequence (P00519 whole entry): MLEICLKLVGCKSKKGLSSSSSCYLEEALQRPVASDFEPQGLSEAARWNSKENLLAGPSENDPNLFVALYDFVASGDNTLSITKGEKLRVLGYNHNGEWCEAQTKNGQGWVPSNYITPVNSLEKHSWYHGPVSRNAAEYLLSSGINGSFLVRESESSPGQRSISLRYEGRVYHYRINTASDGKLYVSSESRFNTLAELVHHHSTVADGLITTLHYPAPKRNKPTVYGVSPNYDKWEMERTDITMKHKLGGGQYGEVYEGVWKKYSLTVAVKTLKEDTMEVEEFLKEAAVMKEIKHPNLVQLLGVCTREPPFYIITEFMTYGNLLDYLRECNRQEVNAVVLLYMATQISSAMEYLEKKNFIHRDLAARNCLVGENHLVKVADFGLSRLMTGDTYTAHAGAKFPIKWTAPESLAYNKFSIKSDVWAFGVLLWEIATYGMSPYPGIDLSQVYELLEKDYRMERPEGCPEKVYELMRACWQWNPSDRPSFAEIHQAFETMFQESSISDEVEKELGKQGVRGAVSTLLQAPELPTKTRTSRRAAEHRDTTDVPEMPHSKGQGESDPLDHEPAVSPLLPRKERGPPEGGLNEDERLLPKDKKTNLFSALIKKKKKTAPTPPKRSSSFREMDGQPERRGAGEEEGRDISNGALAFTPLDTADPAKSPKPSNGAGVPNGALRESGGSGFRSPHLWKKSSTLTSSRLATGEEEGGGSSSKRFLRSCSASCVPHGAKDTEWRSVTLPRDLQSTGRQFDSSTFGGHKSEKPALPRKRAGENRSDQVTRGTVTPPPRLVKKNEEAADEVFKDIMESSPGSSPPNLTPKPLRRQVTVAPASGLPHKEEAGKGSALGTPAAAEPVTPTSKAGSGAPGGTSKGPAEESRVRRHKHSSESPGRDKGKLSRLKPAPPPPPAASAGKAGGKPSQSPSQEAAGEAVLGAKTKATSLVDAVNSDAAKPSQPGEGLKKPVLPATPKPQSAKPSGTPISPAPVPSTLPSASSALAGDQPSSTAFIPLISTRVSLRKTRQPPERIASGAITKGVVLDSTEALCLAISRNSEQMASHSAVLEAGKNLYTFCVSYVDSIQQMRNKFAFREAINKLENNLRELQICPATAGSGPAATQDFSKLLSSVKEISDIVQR

| inhibition of expression of BCR-ABL and/or CRBN protein (BCR-ABL fusion protein) | level of BCR-ABL fusion protein (WB) (BCR-ABL fusion protein; K562 cells, 100 nM, 36 hours after administration) | level of the ABL protein (WB) (ABL) | SMILES | level of the BCR-ABL protein (WB) (BCR-ABL fusion protein; K562 cells, 36 hours after administration, dose-effect) |
| --- | --- | --- | --- | --- |
| can inhibit the expression | significantly reduced | significantly reduced | Cc1nc(Nc2ncc(C(=O)Nc3c(C)cccc3Cl)s2)cc(N2CCN(CCOc3ccc(/N=N/c4ccc(C(=O)Nc5cccc6c5CN(C5CCC(=O)NC5=O)C6=O)cc4)cc3)CC2)n1 (stereo not shown) [Compound 2C, (E)-N-(2-chloro-6-methylphenyl)-2-((6-(4-(2-(4-((4-((2-(2,6-dioxopiperidin-3-yl)-1-oxoisoindolin-4-yl)carbamoyl)phenyl)diazenyl)phenoxy)ethyl)piperazin-1-yl)-2-methylpyrimidin-4-yl)amino)thiazole-5-carboxamide] | down-regulate the level of the BCR-ABL protein in a dose-dependent manner |
| can inhibit the expression |  |  | Cc1nc(Nc2ncc(C(=O)Nc3c(C)cccc3Cl)s2)cc(N2CCN(CCCOc3ccc(/N=N/c4ccc(C(=O)Nc5cccc6c5CN(C5CCC(=O)NC5=O)C6=O)cc4)cc3)CC2)n1 (stereo not shown) [Compound 3C, (E)-N-(2-chloro-6-methylphenyl)-2-((6-(4-(3-(4-((4-((2-(2,6-dioxopiperidin-3-yl)-1-oxoisoindolin-4-yl)carbamoyl)phenyl)diazenyl)phenoxy)propyl)piperazin-1-yl)-2-methylpyrimidin-4-yl)amino)thiazole-5-carboxamide] |  |
| can inhibit the expression |  |  | Cc1nc(Nc2ncc(C(=O)Nc3c(C)cccc3Cl)s2)cc(N2CCN(CCCCCOc3ccc(/N=N/c4ccc(C(=O)Nc5cccc6c5CN(C5CCC(=O)NC5=O)C6=O)cc4)cc3)CC2)n1 (stereo not shown) [Compound 5C, (E)-N-(2-chloro-6-methylphenyl)-2-((6-(4-(5-(4-((4-((2-(2,6-dioxopiperidin-3-yl)-1-oxoisoindolin-4-yl)carbamoyl)phenyl)diazenyl)phenoxy)pentyl)piperazin-1-yl)-2-methylpyrimidin-4-yl)amino)thiazole-5-carboxamide] |  |
| can inhibit the expression |  |  | Cc1nc(Nc2ncc(C(=O)Nc3c(C)cccc3Cl)s2)cc(N2CCN(CCCCCCOc3ccc(/N=N/c4ccc(C(=O)Nc5cccc6c5CN(C5CCC(=O)NC5=O)C6=O)cc4)cc3)CC2)n1 (stereo not shown) [Compound 6C, (E)-N-(2-chloro-6-methylphenyl)-2-((6-(4-(6-(4-((4-((2-(2,6-dioxopiperidin-3-yl)-1-oxoisoindolin-4-yl)carbamoyl)phenyl)diazenyl)phenoxy)hexyl)piperazin-1-yl)-2-methylpyrimidin-4-yl)amino)thiazole-5-carboxamide] |  |
